This passage reports IC50 results from US20100105655A1, “NOVEL COMPOUNDS 515” (ASTRAZENECA AB, priority 2008, published 2010).

T1 sequence (P08069 31-1367): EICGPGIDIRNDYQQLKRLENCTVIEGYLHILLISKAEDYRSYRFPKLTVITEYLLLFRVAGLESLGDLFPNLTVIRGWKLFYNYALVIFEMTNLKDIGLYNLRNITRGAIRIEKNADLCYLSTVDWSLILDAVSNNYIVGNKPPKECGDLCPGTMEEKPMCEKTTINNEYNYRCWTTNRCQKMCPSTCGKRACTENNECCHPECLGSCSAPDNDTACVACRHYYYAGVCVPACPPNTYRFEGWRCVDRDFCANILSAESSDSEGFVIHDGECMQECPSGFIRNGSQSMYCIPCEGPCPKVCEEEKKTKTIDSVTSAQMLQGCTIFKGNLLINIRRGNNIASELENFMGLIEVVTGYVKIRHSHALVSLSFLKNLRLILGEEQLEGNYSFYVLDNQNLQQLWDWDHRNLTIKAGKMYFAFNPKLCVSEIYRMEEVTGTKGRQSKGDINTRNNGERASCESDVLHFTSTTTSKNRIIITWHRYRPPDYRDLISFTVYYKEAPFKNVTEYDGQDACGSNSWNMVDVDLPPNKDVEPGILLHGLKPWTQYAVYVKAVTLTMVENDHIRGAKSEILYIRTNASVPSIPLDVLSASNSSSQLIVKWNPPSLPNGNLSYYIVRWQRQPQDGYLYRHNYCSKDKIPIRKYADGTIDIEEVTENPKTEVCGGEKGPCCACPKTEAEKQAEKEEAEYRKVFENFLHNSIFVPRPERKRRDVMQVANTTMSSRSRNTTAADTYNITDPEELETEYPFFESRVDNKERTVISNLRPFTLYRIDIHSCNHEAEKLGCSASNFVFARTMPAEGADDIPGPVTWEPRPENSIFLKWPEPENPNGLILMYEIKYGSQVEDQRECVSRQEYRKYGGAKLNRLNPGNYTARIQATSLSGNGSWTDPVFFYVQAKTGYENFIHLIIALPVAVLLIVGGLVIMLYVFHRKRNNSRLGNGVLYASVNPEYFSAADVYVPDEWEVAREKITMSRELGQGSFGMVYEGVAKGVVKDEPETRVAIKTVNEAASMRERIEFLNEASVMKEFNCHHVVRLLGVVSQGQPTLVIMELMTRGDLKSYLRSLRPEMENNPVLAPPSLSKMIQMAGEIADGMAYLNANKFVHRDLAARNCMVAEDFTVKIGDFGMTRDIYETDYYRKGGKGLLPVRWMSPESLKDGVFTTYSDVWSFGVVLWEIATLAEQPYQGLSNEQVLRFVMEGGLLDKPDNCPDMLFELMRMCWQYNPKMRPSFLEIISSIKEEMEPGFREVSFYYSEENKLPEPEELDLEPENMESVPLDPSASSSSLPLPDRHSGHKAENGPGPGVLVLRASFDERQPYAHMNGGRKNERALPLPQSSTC

The assay has as its target T1, IGFR kinase (Homo sapiens, UniProt P08069).
T1 construct: purchased Millipore
The assay can be described thus: Enzyme assay (c), IGFR kinase, Caliper LabChip. Type of assay: biochemical. The conditions noted are these: 30 nM IGFR kinase, 6 uM ATP, 3 uM peptide mix; read-out: IGFR IC50. The procedure:
For Echo dosing the solvent was 100% DMSO. A master plate was prepared with 40 ul of 10 mM stock solution of the test compound in DMSO in quadrant 1 of a Labcyte 384 well plate. A 1 in 100 dilution was made from quadrant 1 into quadrant 2 by removing 0.4 ul and adding it to 39.6 ul of DMSO. Subsequent 1 in 100 dilutions were made into quadrant 3 from quadrant 2 and quadrant 4 from quadrant 3.
Multiple 2.5 nl droplets were dispensed from each quadrant of the master plate to generate the dose range that was required in the test. The dose range most commonly used was as follows: 100 uM, 30 uM, 10 uM, 3 uM, 1 uM, 0.3 uM, 0.1 uM, 0.03 uM, 0.01 uM, 0.003 uM, 0.001 uM, 0.0001 uM. Each well was backfilled with dimethyl sulfoxide (DMSO) to a total volume of 120 nl, such that when the enzyme and substrate mix was added the final DMSO concentration was 1%.
DMSO was added to max control wells as 120 nl, minimum control wells were treated with 120 nl of compound at a concentration that inhibited the enzyme activity 100%.
Integration of the substrate and product peaks was carried out using Caliper LabChip software and IC50 curves were calculated using Origin™ software.
As usually defined, the IC50 is the concentration needed to halve the response being measured. `COc1cc(C2CCNCC2)ccc1Nc1ncc(C)c(-c2cnn3ccccc23)n1` [Example 162, N-[2-methoxy-4-(4-piperidyl)phenyl]-5-methyl-4-pyrazolo[1,5-a]pyridin-3-yl-pyrimidin-2-amine]: the IC50 is 2 nM.

On to `COc1cc(N2CCOCC2)ccc1Nc1ncc(F)c(-c2cnc3ccccn23)n1` [Example 79, 5-fluoro-4-imidazo[1,2-a]pyridin-3-yl-N-(2-methoxy-4-morpholino-phenyl)pyrimidin-2-amine], for which the half-maximal inhibitory concentration (IC50) turned out to be 56 nM.

Take `COc1cc(CNCCCO)ccc1Nc1ncc(Cl)c(-c2cnc3ccccn23)n1` [Example 21.3, 3-[[4-[(5-chloro-4-imidazo[1,2-a]pyridin-3-yl-pyrimidin-2-yl)amino]-3-methoxy-phenyl]methylamino]propan-1-ol]: the IC50 is 20 nM.

For the compound `COc1cc(C2CCN(C(C)=O)CC2)ccc1Nc1ncc(Cl)c(-c2cnc3c(F)cccn23)n1` [Example 177, 1-[4-[4-[[5-chloro-4-(8-fluoroimidazo[1,2-a]pyridin-3-yl)pyrimidin-2-yl]amino]-3-methoxy-phenyl]-1-piperidyl]ethanone], the concentration for half-maximal inhibition (IC50) stood at 5 nM.

For `COc1cc(N2CCN(C(C)(C)CO)CC2)ccc1Nc1ncc(Cl)c(-c2cnc3ccc(F)cn23)n1` [Example 259, 2-[4-[4-[[5-chloro-4-(6-fluoroimidazo[1,2-a]pyridin-3-yl)pyrimidin-2-yl]amino]-3-methoxy-phenyl]piperazin-1-yl]-2-methyl-propan-1-ol], the IC50 was determined as 4 nM.

With `COc1cc(N2CCN(C(C)=O)CC2)ccc1Nc1ncc(C(F)(F)F)c(-c2cnc3ccccn23)n1` [Example 107, 1-[4-[4-[[4-imidazo[1,2-a]pyridin-3-yl-5-(trifluoromethyl)pyrimidin-2-yl]amino]-3-methoxy-phenyl]piperazin-1-yl]ethanone], the 50% inhibitory concentration (IC50) is 15 nM.

As to `COc1cc(N2CC[C@@H](O)C2)ccc1Nc1ncc(F)c(-c2cnc3ccccn23)n1` [Example 85, (3R)-1-[4-[(5-fluoro-4-imidazo[1,2-a]pyridin-3-yl-pyrimidin-2-yl)amino]-3-methoxy-phenyl]pyrrolidin-3-ol], the concentration for half-maximal inhibition (IC50) came to 34 nM.

With `COc1cc(N2CC3CN(CCO)CC(C2)O3)ccc1Nc1ncc(C)c(-c2cnc3ccccn23)n1` [Example 232, 2-[7-[4-[(4-imidazo[1,2-a]pyridin-3-yl-5-methyl-pyrimidin-2-yl)amino]-3-methoxy-phenyl]-9-oxa-3,7-diazabicyclo[3.3.1]nonan-3-yl]ethanol], the IC50 came out at 23 nM.

Consider `COc1cc(C)c(Nc2ncc(Br)c(-c3cnc4ccccn34)n2)cc1OC` [Example 124, 5-bromo-N-(4,5-dimethoxy-2-methyl-phenyl)-4-imidazo[1,2-a]pyridin-3-yl-pyrimidin-2-amine], for which the IC50 was found to be 31 nM.

Turning to `COCCN1CCN(c2ccc(Nc3ncc(F)c(-c4cnc5ccccn45)n3)c(OC)c2)CC1` [Example 82, 5-fluoro-4-imidazo[1,2-a]pyridin-3-yl-N-[2-methoxy-4-[4-(2-methoxyethyl)piperazin-1-yl]phenyl]pyrimidin-2-amine], the IC50 was 43 nM.

In the case of `COc1cc(CN2CCC(O)CC2)ccc1Nc1ncc(Cl)c(-c2cnc3ccccn23)n1` [Example 21.5, 1-[[4-[(5-chloro-4-imidazo[1,2-a]pyridin-3-yl-pyrimidin-2-yl)amino]-3-methoxy-phenyl]methyl]piperidin-4-ol], the half-maximal inhibitory concentration (IC50) stood at 28 nM.

As for `COc1cc(N2CCN(C(=O)CO)CC2)ccc1Nc1ncc(Cl)c(-c2cnc3ccc(F)cn23)n1` [Example 249, 1-[4-[4-[[5-chloro-4-(6-fluoroimidazo[1,2-a]pyridin-3-yl)pyrimidin-2-yl]amino]-3-methoxy-phenyl]piperazin-1-yl]-2-hydroxy-ethanone], the IC50 is 5 nM.

`COc1cc(N2CCN(CCO)CC2)ccc1Nc1ncc(C)c(-c2cnn3ccccc23)n1` [Example 161, 2-[4-[3-methoxy-4-[(5-methyl-4-pyrazolo[1,5-a]pyridin-3-yl-pyrimidin-2-yl)amino]phenyl]piperazin-1-yl]ethanol]: the 50% inhibitory concentration (IC50) is 11 nM.

For `COc1cc(N2CCN(CCO)[C@@H](C)C2)ccc1Nc1ncc(C)c(-c2cnc3ccccn23)n1` [Example 271, 2-[(2S)-4-[4-[(4-imidazo[1,2-a]pyridin-3-yl-5-methyl-pyrimidin-2-yl)amino]-3-methoxy-phenyl]-2-methyl-piperazin-1-yl]ethanol], the 50% inhibitory concentration (IC50) amounted to 190 nM.

As for `CNC(=O)C1CCN(c2ccc(Nc3ncc(Cl)c(-c4cnc5c(F)cccn45)n3)c(OC)c2)CC1` [Example 222, 1-[4-[[5-chloro-4-(8-fluoroimidazo[1,2-a]pyridin-3-yl)pyrimidin-2-yl]amino]-3-methoxy-phenyl]-N-methyl-piperidine-4-carboxamide], the half-maximal inhibitory concentration (IC50) is 3 nM.

Regarding `COc1cc(N2CCN(C(=O)[C@@H](N)CC(N)=O)CC2)ccc1Nc1ncc(Cl)c(-c2cnc3ccccn23)n1` [Example 24.8, (3S)-3-amino-4-[4-[4-[(5-chloro-4-imidazo[1,2-a]pyridin-3-yl-pyrimidin-2-yl)amino]-3-methoxy-phenyl]piperazin-1-yl]-4-oxo-butanamide], the concentration for half-maximal inhibition (IC50) was found to be 7 nM.

As for `COc1ccc(C2CCNCC2)cc1Nc1ncc(F)c(-c2cnc3ccccn23)n1` [Example 112, 5-fluoro-4-imidazo[1,2-a]pyridin-3-yl-N-[2-methoxy-5-(4-piperidyl)phenyl]pyrimidin-2-amine], the concentration for half-maximal inhibition (IC50) is 42 nM.

Regarding `COc1cc(C(C)C(=O)N2CCNCC2)ccc1Nc1ncc(Cl)c(-c2cnc3ccccn23)n1` (stereo not shown) [Example 3.42, 2-[4-[(5-chloro-4-imidazo[1,2-a]pyridin-3-yl-pyrimidin-2-yl)amino]-3-methoxy-phenyl]-1-piperazin-1-yl-propan-1-one], the concentration for half-maximal inhibition (IC50) turned out to be 25 nM.

On to `COc1cc(O[C@H]2CCNC2)ccc1Nc1ncc(Cl)c(-c2cnc3ccccn23)n1` [Example 6.6, 5-chloro-4-imidazo[1,2-a]pyridin-3-yl-N-[2-methoxy-4-[(3S)-pyrrolidin-3-yl]oxy-phenyl]pyrimidin-2-amine], for which the half-maximal inhibitory concentration (IC50) came out at 14 nM.

Regarding `COc1cc(N2CCN(C(=O)[C@H]3CCCCN3)CC2)ccc1Nc1ncc(Cl)c(-c2cnc3ccccn23)n1` [Example 24.1, [4-[4-[(5-chloro-4-imidazo[1,2-a]pyridin-3-yl-pyrimidin-2-yl)amino]-3-methoxy-phenyl]piperazin-1-yl]-[(2R)-2-piperidyl]methanone], the IC50 came out at 8 nM.

Take `COc1cc(OC2CN(C(=O)[C@@H](C)OC)C2)ccc1Nc1ncc(Cl)c(-c2cnc3ccccn23)n1` [Example 27.4, (2R)-1-[3-[4-[(5-chloro-4-imidazo[1,2-a]pyridin-3-yl-pyrimidin-2-yl)amino]-3-methoxy-phenoxy]azetidin-1-yl]-2-methoxy-propan-1-one]: the IC50 was found to be 24 nM.

As to `CNCC(=O)N1CCN(c2ccc(OC)c(Nc3ncc(C)c(-c4cnn5ccccc45)n3)c2)CC1` [Example 167, 1-[4-[4-methoxy-3-[(5-methyl-4-pyrazolo[1,5-a]pyridin-3-yl-pyrimidin-2-yl)amino]phenyl]piperazin-1-yl]-2-(methylamino)ethanone], the IC50 amounted to 49 nM.

`COc1cc(C2CCN(C(C)=O)CC2)ccc1Nc1ncc(F)c(-c2cnc3ccccn23)n1` [Example 78, 1-[4-[4-[(5-fluoro-4-imidazo[1,2-a]pyridin-3-yl-pyrimidin-2-yl)amino]-3-methoxy-phenyl]-1-piperidyl]ethanone]: the IC50 was found to be 54 nM.

On to `COc1cc(O[C@@H]2CCN(C(=O)C(C)O)C2)ccc1Nc1ncc(Cl)c(-c2cnc3ccccn23)n1` (mixture of isomers) [Example 12, 1-[(3R)-3-[4-[(5-chloro-4-imidazo[1,2-a]pyridin-3-yl-pyrimidin-2-yl)amino]-3-methoxy-phenoxy]pyrrolidin-1-yl]-2-hydroxy-propan-1-one], for which the IC50 came to 22 nM.

For `COc1cc(CN2CC(O)C2)ccc1Nc1ncc(Cl)c(-c2cnc3ccccn23)n1` [Example 21.16, 1-[[4-[(5-chloro-4-imidazo[1,2-a]pyridin-3-yl-pyrimidin-2-yl)amino]-3-methoxy-phenyl]methyl]azetidin-3-ol], the half-maximal inhibitory concentration (IC50) is 22 nM.

Take `CNCC(=O)N1CCN(c2ccc(Nc3ncc(Cl)c(-c4cnn5ccccc45)n3)c(OC)c2)CC1` [Example 133, 1-[4-[4-[(5-chloro-4-pyrazolo[1,5-a]pyridin-3-yl-pyrimidin-2-yl)amino]-3-methoxy-phenyl]piperazin-1-yl]-2-methylamino-ethanone]: the half-maximal inhibitory concentration (IC50) stood at 3 nM.

For `COc1cc(OC2CN(C(=O)N(C)CCO)C2)ccc1Nc1ncc(Cl)c(-c2cnc3ccccn23)n1` [Example 68, 3-[4-[(5-chloro-4-imidazo[1,2-a]pyridin-3-yl-pyrimidin-2-yl)amino]-3-methoxy-phenoxy]-N-(2-hydroxyethyl)-N-methyl-azetidine-1-carboxamide], the IC50 amounted to 24 nM.

Consider `COc1cc(N2CC3CN(C(=O)[C@@H](C)O)CC(C2)O3)ccc1Nc1ncc(Cl)c(-c2cnc3c(F)cccn23)n1` [Example 214, (2R)-1-[3-[4-[[5-chloro-4-(8-fluoroimidazo[1,2-a]pyridin-3-yl)pyrimidin-2-yl]amino]-3-methoxy-phenyl]-9-oxa-3,7-diazabicyclo[3.3.1]nonan-7-yl]-2-hydroxy-propan-1-one], for which the concentration for half-maximal inhibition (IC50) amounted to 18 nM.
